According to patent US20250042911A1, “NOVEL BENZOPYRAN DERIVATIVE AND USE THEREOF” (SPARK BIOPHARMA, INC, priority 2021, published 2025):

System: human M2 macrophages
Experiment: Inhibition of human M2 macrophage activity, hCCL22 in culture supernatant by ELISA
Assay type: cell-based
Details: for inhibition at 10 µM / inhibition at 5 µM: Macrophage, 72 hours; for inhibition at 10 µM: hCCL22 inhibitory activity at 10 μM; for EC50: hCCL22 secretion, THP-1 derived M2-like macrophages, compound present during 72 hours of differentiation; for inhibition at 5 µM: hML22 inhibitory activity at 5 μM
Procedure: To obtain human M2 macrophages, human monocytes (THP-1 monocyte, CD4 expression) were stabilized in a 96-well plate for 24 hours and then incubated in culture media containing 100 ng/mL phorbal 12-myristate-13-acetate (PMA; Sigma, P8139) for 24 hours to differentiate into M0 macrophages (macrophage-like phenotype). It was confirmed that differentiated M0 macrophages had reduced CD4 expression and expressed CD11b. M0 macrophages in the plate well were washed once with culture media and incubated in culture media containing 25 ng/mL hIL-4 (Peprotech, 200-04-50) and 25 ng/mL hIL-13 (Peprotech, 200-13-50) for 72 hours to differentiate into M2-like macrophages. Test compounds were diluted by concentration in M2 differentiation media and treated simultaneously during a differentiation period of 72 hours. The inhibitory effect of the test compounds on M2 macrophages was determined by measuring hCCL22 in the medium culture supernatant cultured for 72 hours using an ELISA assay (R&D system, DMD00). The results of the activity measurements are represented in Table 3 (EC50), Table 4 ([…] inhibitory activity at 5 μM) and Table 5 (hCCL22 inhibitory activity at 10 μM).

| EC50 | SMILES | inhibition at 10 µM | inhibition at 5 µM |
| --- | --- | --- | --- |
|  | O=c1n(-c2ccccc2)c(=O)n2n1CC=C1C2c2ccc(O)cc2OC1(CF)CF (stereo not shown) [Example 1, 7,7-bis(fluoromethyl)-10-hydroxy-2-phenyl-5,12b-dihydro-1H,7H-chromeno[4,3-c][1,2,4]triazolo[1,2-a]pyridazine-1,3(2H)-dione] | 80.4% |  |
|  | CC(=O)c1ccc(-n2c(=O)n3n(c2=O)C2C(=CC3)C(CF)(CF)Oc3cc(O)ccc32)cc1 (stereo not shown) [Example 2, 2-(4-acetylphenyl)-7,7-bis(fluoromethyl)-10-hydroxy-5,12b-dihydro-1H,7H-chromeno[4,3-c][1,2,4]triazolo[1,2-a]pyridazine-1,3(2H)-dione] | 64.4% |  |
|  | CC(=O)Nc1ccc2c(c1)OC(C)(C)C1=CCn3c(=O)n(-c4ccc(C(C)=O)cc4)c(=O)n3C12 (stereo not shown) [Example 3, N-(2-(4-acetylphenyl)-7,7-dimethyl-1,3-dioxo-2,3,5,12b-tetrahydroxy-1H,7H-chromeno[4,3-c][1,2,4]triazolo[1,2-a]pyridazin-10-yl)acetamide] | 16.9% |  |
|  | CC(=O)c1ccc(-n2c(=O)n3n(c2=O)C2C(=CC3)C(C)(C)Oc3cc(S(C)(=O)=O)ccc32)cc1 (stereo not shown) [Example 4, 2-(4-acetylphenyl)-7,7-dimethyl-10-(methylsulfonyl)-5,12b-dihydro-1H,7H-chromeno[4,3-c][1,2,4]triazolo[1,2-a]pyridazine-1,3(2H)-dione] | 51.9% |  |
|  | CC(=O)c1ccc(-n2c(=O)n3n(c2=O)C2C(=CC3)C(C)(C)Oc3cc(NS(C)(=O)=O)ccc32)cc1 (stereo not shown) [Example 5, N-(2-(4-acetylphenyl)-7,7-dimethyl-1,3-dioxo-2,3,5,12b-tetrahydro-1H,7H-chromeno[4,3-c][1,2,4]triazolo[1,2-a]pyridazin-10-yl)methanesulfonamide] | 42.3% |  |
| 4.5 µM | CC(=O)c1ccc(-n2c(=O)n3n(c2=O)C2C(=CC3)C(C)(C)Oc3cc(N)ccc32)cc1 (stereo not shown) [Example 7, 2-(4-acetylphenyl)-10-amino-7,7-dimethyl-5,12b-dihydro-1H,7H-chromeno[4,3-c][1,2,4]triazolo[1,2-a]pyridazine-1,3(2H)-dione] | 83.4% |  |
|  | CC(=O)c1ccc(-n2c(=O)n3n(c2=O)C2C(=CC3)C(C)(C)Oc3cc(N4CCOCC4)ccc32)cc1 (stereo not shown) [Example 8, 2-(4-acetylphenyl)-7,7-dimethyl-10-morpholino-5,12b-dihydro-1H,7H-chromeno[4,3-c][1,2,4]triazolo[1,2-a]pyridazine-1,3(2H)-dione] | 60.7% |  |
|  | CC(=O)c1ccc(-n2c(=O)n3n(c2=O)C2C(=CC3)C(C)(C)Oc3cc(NS(N)(=O)=O)ccc32)cc1 (stereo not shown) [Example 9, N-(2-(4-acetylphenyl)-7,7-dimethyl-1,3-dioxo-2,3,5,12b-tetrahydro-1H,7H-chromeno[4,3-c][1,2,4]triazolo[1,2-a]pyridazin-10-yl)sulfuric diamide] | 74.8% |  |
|  | CC(=O)c1ccc(-n2c(=O)n3n(c2=O)C2C(=CC3)C(C)(C)Oc3c2cc(Br)c(O)c3Br)cc1 (stereo not shown) [Example 10, 2-(4-acetylphenyl)-9,11-dibromo-10-hydroxy-7,7-dimethyl-5,12b-dihydro-1H,7H-chromeno[4,3-c][1,2,4]triazolo[1,2-a]pyridazine-1,3(2H)-dione] | 98.4% |  |
|  | CC(=O)c1ccc(-n2c(=O)n3n(c2=O)C2C(=CC3)C(C)(C)Oc3c2cc(Cl)c(O)c3Cl)cc1 (stereo not shown) [Example 11, 2-(4-acetylphenyl)-9,11-dichloro-10-hydroxy-7,7-dimethyl-5,12b-dihydro-1H,7H-chromeno[4,3-c][1,2,4]triazolo[1,2-a]pyridazine-1,3(2H)-dione] | 78.1% |  |
|  | CC1(C)Oc2cc(O)ccc2C2C1=CCn1c(=O)n(-c3cccc(F)n3)c(=O)n12 (stereo not shown) [Example 12, 2-(6-fluoropyridin-2-yl)-10-hydroxy-7,7-dimethyl-5,12b-dihydro-1H,7H-chromeno[4,3-c][1,2,4]triazolo[1,2-a]pyridazine-1,3(2H)-dione] | 16.8% |  |
| 4 µM | CCNc1ccc2c(c1)OC(C)(C)C1=CCn3c(=O)n(-c4ccc(C(C)=O)cc4)c(=O)n3C12 (stereo not shown) [Example 16, 2-(4-acetylphenyl)-10-(ethylamino)-7,7-dimethyl-5,12b-dihydro-1H,7H-chromeno[4,3-c][1,2,4]triazolo[1,2-a]pyridazine-1,3(2H)-dione] | 79.9% |  |
| 8.2 µM | CC(=O)c1ccc(-n2c(=O)n3n(c2=O)C2C(=CC3)C(C)(C)Oc3cc(NCC(F)(F)F)ccc32)cc1 (stereo not shown) [Example 17, 2-(4-acetylphenyl)-7,7-dimethyl-10-((2,2,2-trifluoroethyl)amino)-5,12b-dihydro-1H,7H-chromeno[4,3-c][1,2,4]triazolo[1,2-a]pyridazine-1,3(2H)-dione] |  |  |
|  | CC(=O)c1ccc(-n2c(=O)n3n(c2=O)C2C(=CC3)C(C)(C)Oc3cc(N4CCN(C(C)=O)CC4)ccc32)cc1 (stereo not shown) [Example 19, 2-(4-acetylphenyl)-10-(4-acetylpiperazin-1-yl)-7,7-dimethyl-5,12b-dihydro-1H,7H-chromeno[4,3-c][1,2,4]triazolo[1,2-a]pyridazine-1,3(2H)-dione] | 18.8% |  |
|  | CC(=O)c1ccc(-n2c(=O)n3n(c2=O)C2C(=CC3)C(C)(C)Oc3cc(O)c(OC(F)(F)F)cc32)cc1 (stereo not shown) [Example 25, 2-(4-acetylphenyl)-10-hydroxy-7,7-dimethyl-11-(trifluoromethoxy)-5,12b-dihydro-1H,7H-chromeno[4,3-c][1,2,4]triazolo[1,2-a]pyridazine-1,3(2H)-dione] |  | 42% |
|  | CC(=O)c1ccc(-n2c(=O)n3n(c2=O)C2C(=CC3)C(C)(C)Oc3c2cc(F)c(O)c3F)cc1 (stereo not shown) [Example 27, 2-(4-acetylphenyl)-9,11-difluoro-10-hydroxy-7,7-dimethyl-5,12b-dihydro-1H,7H-chromeno[4,3-c][1,2,4]triazolo[1,2-a]pyridazine-1,3(2H)-dione] |  | 29.9% |
|  | CC(=O)c1ccc(-n2c(=O)n3n(c2=O)C2C(=CC3)C(C)(C)Oc3c2cc(Br)c(N)c3Br)cc1 (stereo not shown) [Example 28, 2-(4-acetylphenyl)-10-amino-9,11-dibromo-7,7-dimethyl-5,12b-dihydro-1H,7H-chromeno[4,3-c][1,2,4]triazolo[1,2-a]pyridazine-1,3(2H)-dione] |  | 71.2% |
| 3.3 µM | CC(=O)c1ccc(-n2c(=O)n3n(c2=O)C2C(=CC3)C(C)(C)Oc3cc(NC(C)C)ccc32)cc1 (stereo not shown) [Example 29, 2-(4-acetylphenyl)-10-(isopropylamino)-7,7-dimethyl-5,12b-dihydro-1H,7H-chromeno[4,3-c][1,2,4]triazolo[1,2-a]pyridazine-1,3(2H)-dione] | 95.2% |  |
| 4.3 µM | CC(=O)c1ccc(-n2c(=O)n3n(c2=O)C2C(=CC3)C(C)(C)Oc3cc(NC(C)(C)C)ccc32)cc1 (stereo not shown) [Example 30, 2-(4-acetylphenyl)-10-(tert-butylamino)-7,7-dimethyl-5,12b-dihydro-1H,7H-chromeno[4,3-c][1,2,4]triazolo[1,2-a]pyridazine-1,3(2H)-dione] | 97.3% |  |
| 2 µM | CC(=O)c1ccc(-n2c(=O)n3n(c2=O)C2C(=CC3)C(C)(C)Oc3c2cc(Cl)c(N)c3Cl)cc1 (stereo not shown) [Example 31, 2-(4-acetylphenyl)-10-amino-9,11-dichloro-7,7-dimethyl-5,12b-dihydro-1H,7H-chromeno[4,3-c][1,2,4]triazolo[1,2-a]pyridazine-1,3(2H)-dione] | 97.2% |  |
